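Five concentrations, 48 hours, 96-well plates. GI50 = concentration required for 50% inhibition of growth. TGI is the concentration that stops growth completely.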
System: KM20L2 colon
Assay: NCI tumour cell line growth inhibition, 48 h

| SMILES | TGI |
| --- | --- |
| C1=NC(N(Cc2ccccc2)Cc2ccccc2)N(Cc2ccccc2)N1 (configuration not stated) | 30.8 µM |

System: DMS 273 small cell lung
Assay: NCI tumour cell line growth inhibition, 48 h

| SMILES | TGI | GI50 |
| --- | --- | --- |
| CCc1cccc(C)c1NC(=O)CC1C(=O)Nc2ccccc2S1=O (configuration not stated) | > 100 µM |  |
| O=C1c2ccc3c4ccccc4n(-c4ccccc4)c3c2C(=O)N1c1ccc(Cl)cc1 | > 100 µM |  |
| Cc1ccc2c(c1-c1ccccc1)C(=O)OC2 | > 100 µM |  |
| CCC[CH2][Sn]1([CH2]CCC)[O]CC(COc2c(Cl)cc(Cl)cc2Cl)[O]1 (configuration not stated) | 3.44 µM | 1.78 µM |
| CSc1ccc2c(cc1=O)[C@@H](NC(=O)c1cc(O)c(O)c(O)c1)CCc1cc(O)c(O)c(O)c1-2 | 39.9 µM |  |
| COc1cc(-c2nnc3n2NC=C(C(=O)O)S3)cc(OC)c1OC | > 82.9 µM |  |
| C[P+](C)(C)c1ccccc1 | > 100 µM |  |
| O=C1c2ccccc2C(=O)N1C/C=N/NS(=O)(=O)c1ccc(Br)cc1 | > 100 µM |  |
| COc1cc(/C=C/C(=O)Oc2ccccc2)ccc1C(=O)O/C=C/c1ccccc1 | > 100 µM |  |
| NC(=O)c1cn(Cc2ccccc2)c(=O)n1Cc1ccccc1 | > 100 µM |  |
| CCOC(=O)C(C)(c1c(C)[nH]c2ccccc12)c1c(C)[nH]c2ccccc12 | 31 µM |  |
| Cc1c(Cl)cccc1NC(=O)c1cccc([N+](=O)[O-])c1O | 79.8 µM |  |
| CC1COS(=O)O1 (configuration not stated) | > 100 µM |  |
| CC1CCC(C(C)(C)c2ccccc2)C(=O)C1 (configuration not stated) | > 100 µM |  |
| O=C1CC2CCN(C(=O)c3ccccc3)CC2CCN1 (configuration not stated) | > 100 µM |  |
| O=C1C=CC(=CC=C2C=CN(CCCCCCCCCCC(=O)NCCCCCCCCCCCC(=O)O)C=C2)C=C1 | > 100 µM |  |
| N#Cc1c(-c2ccco2)cc(-c2ccc(N)cc2)[nH]c1=O | > 100 µM |  |
| C=CCC1(C)CCCCC1(O)CS(=O)c1ccccc1 (configuration not stated) | > 100 µM |  |
| C1COCCSC2=C(SCCO1)SC(=C1SC3=C(SCCOCCOCCS3)S1)S2 | > 100 µM |  |
| CS(=O)(=O)CS(=O)(=O)OCCCl | 995 µM |  |
| COc1cc(/C=N\O[Si](C)(C)C(C)(C)C)ccc1O[Si](C)(C)C(C)(C)C | > 100 µM |  |
| CCOC(=O)C1=C(Nc2ccc(Br)cc2)OCC1=O | > 100 µM |  |
| CCOc1ccc(N=Cc2c3ccccc3nc3ccccc23)cc1 | > 100 µM |  |
| C1=NC(N(Cc2ccccc2)Cc2ccccc2)N(Cc2ccccc2)N1 (configuration not stated) | 29.1 µM |  |

System: LXFL 529 NSCLC
Assay: NCI tumour cell line growth inhibition, 48 h

| SMILES | TGI | GI50 |
| --- | --- | --- |
| CCc1cccc(C)c1NC(=O)CC1C(=O)Nc2ccccc2S1=O (configuration not stated) | > 100 µM |  |
| Cc1ccc(N2C(=O)N(c3ccc(C)cc3)C3(SC=NN3C)C2=O)cc1 (configuration not stated) | > 100 µM |  |
| O=C1c2ccc3c4ccccc4n(-c4ccccc4)c3c2C(=O)N1c1ccc(Cl)cc1 | > 100 µM |  |
| Cc1ccc2c(c1-c1ccccc1)C(=O)OC2 | > 100 µM |  |
| CCC[CH2][Sn]1([CH2]CCC)[O]CC(COc2c(Cl)cc(Cl)cc2Cl)[O]1 (configuration not stated) | 1.58 µM | 0.375 µM |
| NC(CCc1ncc(C(=O)O)s1)C(=O)O (configuration not stated) | > 100 µM |  |
| CSc1ccc2c(cc1=O)[C@@H](NC(=O)c1cc(O)c(O)c(O)c1)CCc1cc(O)c(O)c(O)c1-2 | 37.8 µM |  |
| COc1cc(-c2nnc3n2NC=C(C(=O)O)S3)cc(OC)c1OC | > 100 µM |  |
| C[P+](C)(C)c1ccccc1 | > 100 µM |  |
| O=C1c2ccccc2C(=O)N1C/C=N/NS(=O)(=O)c1ccc(Br)cc1 | > 100 µM |  |
| NC(=O)c1cn(Cc2ccccc2)c(=O)n1Cc1ccccc1 | > 100 µM |  |
| CCOC(=O)C(C)(c1c(C)[nH]c2ccccc12)c1c(C)[nH]c2ccccc12 | 77.3 µM |  |
| Cc1c(Cl)cccc1NC(=O)c1cccc([N+](=O)[O-])c1O | > 75.1 µM |  |
| CC1CCC(C(C)(C)c2ccccc2)C(=O)C1 (configuration not stated) | > 100 µM |  |
| O=C1CC2CCN(C(=O)c3ccccc3)CC2CCN1 (configuration not stated) | > 100 µM |  |
| O=C1C=CC(=CC=C2C=CN(CCCCCCCCCCC(=O)NCCCCCCCCCCCC(=O)O)C=C2)C=C1 | > 100 µM |  |
| N#Cc1c(-c2ccco2)cc(-c2ccc(N)cc2)[nH]c1=O | > 100 µM |  |
| C1COCCSC2=C(SCCO1)SC(=C1SC3=C(SCCOCCOCCS3)S1)S2 | > 100 µM |  |
| COc1cc(/C=N\O[Si](C)(C)C(C)(C)C)ccc1O[Si](C)(C)C(C)(C)C | > 100 µM |  |
| CC12CCC(=O)N1c1cccnc1N2 (configuration not stated) | > 100 µM |  |
| COc1cc2c(cc1OC)C1Cc3cc(OC)c(OC)cc3N1CC2 (configuration not stated) | 61.1 µM |  |
| CCOC(=O)C1=C(Nc2ccc(Br)cc2)OCC1=O | > 100 µM |  |
| CCOc1ccc(N=Cc2c3ccccc3nc3ccccc23)cc1 | > 100 µM |  |
| Nc1ccc(C2=N/C(=C\c3cccc(N)c3)C(=O)O2)cc1 | > 100 µM |  |
| NCCN.O=C([O-])[O-].O=C([O-])[O-].[Co+3].[K+] | > 100 µM | > 100 µM |
| C1=NC(N(Cc2ccccc2)Cc2ccccc2)N(Cc2ccccc2)N1 (configuration not stated) | 30.7 µM |  |

System: DMS 114 small cell lung
Assay: NCI tumour cell line growth inhibition, 48 h

| SMILES | TGI |
| --- | --- |
| Cc1ccc(N2C(=O)N(c3ccc(C)cc3)C3(SC=NN3C)C2=O)cc1 (configuration not stated) | > 100 µM |
| O=C1c2ccc3c4ccccc4n(-c4ccccc4)c3c2C(=O)N1c1ccc(Cl)cc1 | > 100 µM |
| Cc1ccc2c(c1-c1ccccc1)C(=O)OC2 | > 100 µM |

— PubChem BioAssay (NCI)
